Tests used:
[1] = Preformulation solubility in vehicles; format: physicochemical
Method: (§1) Preformulation studies of swainsonine hydrochloride, bulk drug substance, and in combination with powder and semisolid fill gelatin capsules were conducted with respect to the following: hygroscopicity, pH, stability, and solubility. […] At 20% and 50% RH it absorbed 1.9% and 2.1% of water by Karl Fischer after 48 hours of storage. The moisture uptake diminishes when anhydrous powder excipients (e.g. lactose anhydrous and mannitol powder) are used to formulate the pharmaceutical active into a hard capsule.
Therefore for soft gelatin capsule formulations hydrophilic vehicles are preferred. The use of a co-solvent such as glycerin or propylene glycol in PEGs may be feasible for liquid or semisolid fills.

[2] = Preformulation pH stability study in buffered solutions; format: physicochemical; settings: pH 4 and 7, ambient and stressed (40° C. and 50° C.) storage
Method: as §1

[3] = system: SP1.A3a mouse mammary adenocarcinoma; experiment: SP1.A3a tumor growth in mice, oral administration in drinking water; format: in vivo, CBA/J mice
Method: The experiment was repeated using swainsonine hydrochloride administered in drinking water. SP1.A3a mouse mammary adenocarcinoma were maintained in exponential growth in RPMI 1640 medium containing 10% FBS. The cells were harvested and re-suspended at 3×10^5/ml in PBS and 0.1 ml containing 3×10^4 cells injected S.C. into the right flank of 7 week old female CBA/J mice (Jackson Laboratories) (n=25). The mice were subsequently supplied with drinking water alone (n=13) or drinking water containing 10 μg/ml swainsonine hydrochloride (n=12) (equivalent to a dose of 2 mg/kg/day).
Once a palpable tumor was evident, tumor size was measured twice a week using vernier callipers. At the end of the treatment period the tumors were excised and weighed.

[4] = system: granulocyte-macrophage progenitor cells (CFU-GM); experiment: Murine bone marrow progenitor cell assay in methylcellulose, CFU-GM; format: cell-based, C57BL/6 mouse; settings: FIG. 11
Method: The healthy and GD0039 treated mice were euthanized by CO2 asphyxiation. Bone marrow (BM) cell suspensions were prepared under sterile conditions by flushing both femurs and tibiae with IMDM/FBS using a 26 gauge needle. Single cell suspensions were made up to 10.0 ml IMDM/FBS. The concentration of nucleated cells in each suspension was determined by triplicate counts on a hemocytometer. A portion of the cells was further diluted in media to the appropriate concentration before plating for the progenitor assay.
Colony-forming units (CFUs) were estimated by the methylcellulose method. One milliliter suspensions, containing 2×10^5 nucleated BM cells, in 0.1 ml of IMDM and 0.9 ml MethoCult (M3330), were plated in triplicate in 35 mm tissue culture dishes. Swainsonine hydrochloride or swainsonine were added to certain plates, in 0.1 ml of IMDM at concentrations of 30 μg/ml and 3 μg/ml, which gave final concentrations of […]. The MethoCult M3330 contains 30% FBS and 10 μg/ml erythropoietin and is designed for the growth of early erythroid progenitor cells (CFU-E), which were scored after 3 days of incubation at 37° C. in a humidified atmosphere containing 5% CO2. […] Colonies containing more than 20 cells were scored using an inverted microscope with brightfield optics and 40× or 100× magnification. […]

With `Cl.O[C@H]1[C@H]2[C@H](O)CCCN2C[C@@H]1O` [swainsonine hydrochloride, (−)-(1S,2S,8R,8aR)-1,2,8-trihydroxyoctahydro-indolizidine hydrochloride salt] the “solubility in aqueous and hydrophilic vehicles” value [1] was “highly soluble”, the “stability in buffered solutions” value [2] was “stable” and the “tumor growth versus control mice” value ([3]; 10 μg/ml in drinking water (2 mg/kg/day), FIG. 9) was “slower growing tumors”. The mean tumor weight ([3]; 10 μg/ml in drinking water, at 31 days, untreated 3.33 g) was 1.79 g and the “effect on granulocyte-macrophage progenitor cells in vitro” value [4] was “stimulate”.
